Reference: the NIST ThermoML archive (doi:10.1021/je400544h)
± gives the expanded uncertainty stated by the source.

Details: Liquid, Ebulliometric method (Recirculating still)

Structure (SMILES): CC(C)=O [acetone]
- vapor or sublimation pressure (329.37 K): 101.3 ± 1.8 kPa

Structure (SMILES): CCO [ethanol]
- vapor or sublimation pressure (351.45 K): 101.3 ± 1.8 kPa

Structure (SMILES): FC(F)(F)C(Cl)(Cl)Cl [1,1,1-trichloro-2,2,2-trifluoroethane]
- vapor or sublimation pressure (319.15 K): 101.3 ± 2 kPa

Structure (SMILES): O=S(=O)(Cl)Cl [sulfuryl chloride]
- vapor or sublimation pressure (342.6 K): 101.3 ± 2 kPa
